Assays:
FLK-1 receptor = target: T1, FLK-1 receptor (Mus musculus, UniProt P35918); test: FLK-1 ELISA (kinase activity of the FLK-1 receptor in FLK-1/NIH3T3 cells, VEGF stimulated); format: cell-based
T1 construct: expressed in transfected cells; host or cells: NIH3T3 C7#3
Summary of the method: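 NIH3T3 C7#3 cells expressing FLK-1 were seeded at 25.000 cells/well, serum-starved overnight in 0.1% FBS, then treated with compound for two hours at 37°C (final DMSO 0.5%) before VEGF stimulation. Receptor was captured on anti-rabbit IgG-coated ELISA plates bearing affinity-purified anti-FLK-1 antiserum.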

PDGF-R = PDGF-R (Homo sapiens, UniProt P09619); test: PDGF-R ELISA; format: cell-based
Text: A PDGF-R ELISA is described in International Patent Publication No. WO 96/40116, published December 19, 1996 by Tang et al.

Chain of PDGF-R (P09619 33-1106, species assumed): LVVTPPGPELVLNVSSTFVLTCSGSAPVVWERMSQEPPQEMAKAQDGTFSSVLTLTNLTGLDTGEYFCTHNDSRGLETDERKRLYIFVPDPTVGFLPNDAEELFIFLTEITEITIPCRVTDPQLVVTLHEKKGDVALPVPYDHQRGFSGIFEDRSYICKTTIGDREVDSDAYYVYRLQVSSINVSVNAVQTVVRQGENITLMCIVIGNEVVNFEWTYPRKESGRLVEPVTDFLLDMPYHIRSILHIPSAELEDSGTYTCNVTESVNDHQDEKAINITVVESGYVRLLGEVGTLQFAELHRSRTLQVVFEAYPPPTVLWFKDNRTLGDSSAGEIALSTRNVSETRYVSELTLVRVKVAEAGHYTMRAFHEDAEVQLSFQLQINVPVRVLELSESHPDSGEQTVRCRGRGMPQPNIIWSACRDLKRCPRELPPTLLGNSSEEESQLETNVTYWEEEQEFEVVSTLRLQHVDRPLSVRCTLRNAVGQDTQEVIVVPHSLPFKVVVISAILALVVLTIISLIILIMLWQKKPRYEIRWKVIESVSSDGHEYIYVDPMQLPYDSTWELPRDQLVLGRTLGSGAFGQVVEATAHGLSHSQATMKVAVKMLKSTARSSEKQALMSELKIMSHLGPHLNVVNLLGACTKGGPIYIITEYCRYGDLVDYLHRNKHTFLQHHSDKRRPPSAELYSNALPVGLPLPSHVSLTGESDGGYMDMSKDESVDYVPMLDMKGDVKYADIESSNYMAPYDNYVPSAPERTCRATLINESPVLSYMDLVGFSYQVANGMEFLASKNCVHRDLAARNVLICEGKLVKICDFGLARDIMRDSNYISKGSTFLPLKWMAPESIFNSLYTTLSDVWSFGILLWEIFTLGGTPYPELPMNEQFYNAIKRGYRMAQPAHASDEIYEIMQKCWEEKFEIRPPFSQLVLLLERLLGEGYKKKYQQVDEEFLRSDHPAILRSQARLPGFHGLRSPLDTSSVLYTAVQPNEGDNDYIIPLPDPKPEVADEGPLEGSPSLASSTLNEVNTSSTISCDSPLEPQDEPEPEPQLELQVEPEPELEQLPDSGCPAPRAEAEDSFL
T1 sequence (P35918 20-1345): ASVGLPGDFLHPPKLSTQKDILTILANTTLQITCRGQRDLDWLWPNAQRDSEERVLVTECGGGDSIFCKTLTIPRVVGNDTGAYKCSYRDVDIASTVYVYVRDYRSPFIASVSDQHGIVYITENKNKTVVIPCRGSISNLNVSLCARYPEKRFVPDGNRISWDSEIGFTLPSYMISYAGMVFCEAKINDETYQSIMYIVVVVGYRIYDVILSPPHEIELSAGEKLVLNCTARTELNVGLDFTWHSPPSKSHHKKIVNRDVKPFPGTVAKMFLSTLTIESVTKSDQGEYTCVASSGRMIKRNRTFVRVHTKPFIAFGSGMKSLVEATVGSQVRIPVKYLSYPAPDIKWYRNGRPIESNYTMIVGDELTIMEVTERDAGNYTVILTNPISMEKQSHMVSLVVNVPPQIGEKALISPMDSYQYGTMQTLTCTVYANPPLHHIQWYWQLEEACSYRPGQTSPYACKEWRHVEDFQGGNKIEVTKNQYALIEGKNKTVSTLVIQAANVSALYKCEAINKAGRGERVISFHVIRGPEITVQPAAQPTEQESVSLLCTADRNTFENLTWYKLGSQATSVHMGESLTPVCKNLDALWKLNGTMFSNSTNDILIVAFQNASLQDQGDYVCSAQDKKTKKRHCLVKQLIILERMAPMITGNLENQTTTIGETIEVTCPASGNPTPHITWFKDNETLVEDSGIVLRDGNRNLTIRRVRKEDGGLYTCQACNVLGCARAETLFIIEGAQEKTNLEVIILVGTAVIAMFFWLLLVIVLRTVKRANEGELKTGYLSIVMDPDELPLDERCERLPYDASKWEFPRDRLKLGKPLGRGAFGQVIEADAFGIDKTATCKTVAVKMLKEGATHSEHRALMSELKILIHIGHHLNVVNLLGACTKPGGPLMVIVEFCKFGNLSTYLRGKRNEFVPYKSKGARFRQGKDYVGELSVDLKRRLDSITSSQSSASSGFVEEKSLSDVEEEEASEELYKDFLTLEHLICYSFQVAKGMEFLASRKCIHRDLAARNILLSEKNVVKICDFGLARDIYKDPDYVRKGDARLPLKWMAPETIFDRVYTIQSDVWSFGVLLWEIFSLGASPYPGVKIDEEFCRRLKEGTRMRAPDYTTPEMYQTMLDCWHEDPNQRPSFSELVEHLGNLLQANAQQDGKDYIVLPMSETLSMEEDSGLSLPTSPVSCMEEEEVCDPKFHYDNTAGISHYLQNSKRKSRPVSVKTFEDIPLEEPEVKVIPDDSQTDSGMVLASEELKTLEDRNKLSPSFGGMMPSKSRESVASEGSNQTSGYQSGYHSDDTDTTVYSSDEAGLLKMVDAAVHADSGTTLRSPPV

Compound	Fik Kinase %Inhibition (FLK-1 receptor)	PDGF Kinase %Inhibition (PDGF-R)
O=C1Nc2c(Br)cc(Br)cc2C1=Cc1cccs1 [10717/A03]	2.9%	
CCOc1ccccc1C=C1C(=O)Nc2ccc(S(=O)(=O)NC)cc21 [10717/D02]	5.1%	
CNS(=O)(=O)c1ccc2c(c1)C(=Cc1cccs1)C(=O)N2 [10717/D03]	1.1%	
CNS(=O)(=O)c1ccc2c(c1)C(=Cc1cccn1C)C(=O)N2 [10717/D04]	-2.1%	
CNS(=O)(=O)c1ccc2c(c1)C(=Cc1ccc(F)cc1)C(=O)N2 [10717/D05]	-3.8%	
CNS(=O)(=O)c1ccc2c(c1)C(=Cc1c[nH]c3ccccc13)C(=O)N2 [10717/D06]	1.0%	
CNS(=O)(=O)c1ccc2c(c1)C(=Cc1ccc(C)s1)C(=O)N2 [10717/D07]	-8.4%	
CNS(=O)(=O)c1ccc2c(c1)C(=Cc1ccc(Br)cc1)C(=O)N2 [10717/D08]	6.8%	
CNS(=O)(=O)c1ccc2c(c1)C(=Cc1ccc[nH]1)C(=O)N2 [10717/D09]	-55.0%	
CNS(=O)(=O)c1ccc2c(c1)C(=Cc1c(O)cccc1OC)C(=O)N2 [10717/D10]	-6.0%	
CNS(=O)(=O)c1ccc2c(c1)C(=Cc1cc(Br)c(O)c(C(C)(C)C)c1)C(=O)N2 [10721/D10]	23.7%	
CNS(=O)(=O)c1ccc2c(c1)C(=Cc1cc(C(C)(C)C)c(O)c(C(C)(C)C)c1)C(=O)N2 [10721/D11]	20.6%	
Cn1c(C=C2C(=O)Nc3ccc(S(=O)(=O)Nc4ccc(C(F)(F)F)cc4)cc32)nc2ccccc21 [10721/E02]	17.2%	
Cn1cc(Cl)c(C=C2C(=O)Nc3ccc(S(=O)(=O)Nc4ccc(C(F)(F)F)cc4)cc32)n1 [10721/E03]	10.9%	
Cc1cc(C=C2C(=O)Nc3ccc(S(=O)(=O)Nc4ccc(C(F)(F)F)cc4)cc32)sc1C [10721/E04]	16.0%	
O=C1Nc2ccc(S(=O)(=O)Nc3ccc(C(F)(F)F)cc3)cc2C1=Cc1cc2c([nH]1)CCCC2 [10721/E05]	10.8%	
O=C1Nc2ccc(S(=O)(=O)Nc3ccc(C(F)(F)F)cc3)cc2C1=Cc1cc([N+](=O)[O-])cc(CCl)c1O [10721/E06]	40.4%	
O=C1Nc2ccc(S(=O)(=O)Nc3ccc(C(F)(F)F)cc3)cc2C1=Cc1ccc(Cl)s1 [10721/E07]	15.6%	
Cc1cc(C)c(C=C2C(=O)Nc3ccc(S(=O)(=O)Nc4ccc(C(F)(F)F)cc4)cc32)[nH]1 [10721/E08]	15.7%	
CC(C)(C)c1cc(C=C2C(=O)Nc3ccc(S(=O)(=O)Nc4ccc(C(F)(F)F)cc4)cc32)ccc1O [10721/E09]	36.9%	
CC(C)(C)c1cc(C=C2C(=O)Nc3ccc(S(=O)(=O)Nc4ccc(C(F)(F)F)cc4)cc32)cc(Br)c1O [10721/E10]	9.3%	
CC(C)(C)c1cc(C=C2C(=O)Nc3ccc(S(=O)(=O)Nc4ccc(C(F)(F)F)cc4)cc32)cc(C(C)(C)C)c1O [10721/E11]	0.7%	
Cn1c(C=C2C(=O)Nc3ccc(S(=O)(=O)N4CCOCC4)cc32)nc2ccccc21 [10721/F02]	17.0%	

Compound	Fik Kinase %Inhibition (FLK-1 receptor)	PDGF Kinase %Inhibition (PDGF-R)
Cn1cc(Cl)c(C=C2C(=O)Nc3ccc(S(=O)(=O)N4CCOCC4)cc32)n1 [10721/F03]	9.1%	
Cc1cc(C=C2C(=O)Nc3ccc(S(=O)(=O)N4CCOCC4)cc32)sc1C [10721/F04]	7.4%	
O=C1Nc2ccc(S(=O)(=O)N3CCOCC3)cc2C1=Cc1cc2c([nH]1)CCCC2 [10721/F05]	8.1%	
O=C1Nc2ccc(S(=O)(=O)N3CCOCC3)cc2C1=Cc1cc([N+](=O)[O-])cc(CCl)c1O [10721/F06]	2.2%	
O=C1Nc2ccc(S(=O)(=O)N3CCOCC3)cc2C1=Cc1ccc(Cl)s1 [10721/F07]	4.8%	
Cc1cc(C)c(C=C2C(=O)Nc3ccc(S(=O)(=O)N4CCOCC4)cc32)[nH]1 [10721/F08]	-6.4%	
CC(C)(C)c1cc(C=C2C(=O)Nc3ccc(S(=O)(=O)N4CCOCC4)cc32)ccc1O [10721/F09]	65.2%	
CC(C)(C)c1cc(C=C2C(=O)Nc3ccc(S(=O)(=O)N4CCOCC4)cc32)cc(Br)c1O [10721/F10]	49.6%	
CC(C)(C)c1cc(C=C2C(=O)Nc3ccc(S(=O)(=O)N4CCOCC4)cc32)cc(C(C)(C)C)c1O [10721/F11]	29.7%	
Cn1c(C=C2C(=O)Nc3ccc(CCCl)cc32)nc2ccccc21 [10721/G02]	16.4%	
Cn1cc(Cl)c(C=C2C(=O)Nc3ccc(CCCl)cc32)n1 [10721/G03]	12.1%	
Cc1cc(C=C2C(=O)Nc3ccc(CCCl)cc32)sc1C [10721/G04]	3.2%	
O=C1Nc2ccc(CCCl)cc2C1=Cc1cc2c([nH]1)CCCC2 [10721/G05]	-15.1%	
O=C1Nc2ccc(CCCl)cc2C1=Cc1cc([N+](=O)[O-])cc(CCl)c1O [10721/G06]	18.9%	
O=C1Nc2ccc(CCCl)cc2C1=Cc1ccc(Cl)s1 [10721/G07]	3.3%	
Cc1cc(C)c(C=C2C(=O)Nc3ccc(CCCl)cc32)[nH]1 [10721/G08]	5.4%	
CC(C)(C)c1cc(C=C2C(=O)Nc3ccc(CCCl)cc32)ccc1O [10721/G09]	20.4%	
CC(C)(C)c1cc(C=C2C(=O)Nc3ccc(CCCl)cc32)cc(Br)c1O [10721/G10]	24.4%	
CC(C)(C)c1cc(C=C2C(=O)Nc3ccc(CCCl)cc32)cc(C(C)(C)C)c1O [10721/G11]	-7.1%	
CC(C)(C)c1cc(C=C2C(=O)Nc3c(Br)cc(Br)cc32)cc([N+](=O)[O-])c1O [10722/A02]	0.8%	28.9%
O=C1Nc2c(Br)cc(Br)cc2C1=Cc1c(O)cc(O)cc1O [10722/A03]	6.7%	29.5%
O=C1Nc2c(Br)cc(Br)cc2C1=Cc1ccc([N+](=O)[O-])s1 [10722/A04]	13.4%	-0.9%
O=C1Nc2c(Br)cc(Br)cc2C1=Cc1ccc(C(=O)O)cc1 [10722/A05]	10.5%	33.5%

Compound	Fik Kinase %Inhibition (FLK-1 receptor)	PDGF Kinase %Inhibition (PDGF-R)
O=C1Nc2c(Br)cc(Br)cc2C1=Cc1ccc(F)cc1F [10722/A06]	9.6%	19.8%
Cc1cc(C=C2C(=O)Nc3c(Br)cc(Br)cc32)cc(C)c1O [10722/A07]	9.4%	23.8%
CC(C)(C)c1cc(C=C2C(=O)Nc3c(Br)cc(Br)cc32)cc(Cl)c1O [10722/A08]	13.7%	15.2%
O=C1Nc2c(Br)cc(Br)cc2C1=Cc1csc([N+](=O)[O-])c1 [10722/A09]	7.3%	21.5%
CCCCN(CCCC)c1ccc(C=C2C(=O)Nc3c(Br)cc(Br)cc32)cc1 [10722/A10]	6.6%	15.2%
O=C1Nc2c(Br)cc(Br)cc2C1=Cc1ccc(C(F)(F)F)cc1 [10722/A11]	6.7%	21.5%
CC(C)(C)c1cc(C=C2C(=O)Nc3ccc(I)cc32)cc([N+](=O)[O-])c1O [10722/B02]	10.1%	28.9%
O=C1Nc2ccc(I)cc2C1=Cc1c(O)cc(O)cc1O [10722/B03]	13.6%	3.7%
O=C1Nc2ccc(I)cc2C1=Cc1ccc([N+](=O)[O-])s1 [10722/B04]	14.7%	3.1%
O=C1Nc2ccc(I)cc2C1=Cc1ccc(C(=O)O)cc1 [10722/B05]	18.5%	21.5%
O=C1Nc2ccc(I)cc2C1=Cc1ccc(F)cc1F [10722/B06]	13.9%	21.5%
CC(C)(C)c1cc(C=C2C(=O)Nc3ccc(I)cc32)cc(Cl)c1O [10722/B08]	11.2%	27.8%
CCCCN(CCCC)c1ccc(C=C2C(=O)Nc3ccc(I)cc32)cc1 [10722/B10]	-0.9%	20.3%
O=C1Nc2ccc(I)cc2C1=Cc1ccc(C(F)(F)F)cc1 [10722/B11]	5.2%	25.5%
CNS(=O)(=O)c1ccc2c(c1)C(=Cc1cc([N+](=O)[O-])c(O)c(C(C)(C)C)c1)C(=O)N2 [10722/D02]	30.7%	31.8%
CNS(=O)(=O)c1ccc2c(c1)C(=Cc1c(O)cc(O)cc1O)C(=O)N2 [10722/D03]	15.0%	-9.4%
CNS(=O)(=O)c1ccc2c(c1)C(=Cc1ccc([N+](=O)[O-])s1)C(=O)N2 [10722/D04]	23.5%	15.7%
CNS(=O)(=O)c1ccc2c(c1)C(=Cc1ccc(C(=O)O)cc1)C(=O)N2 [10722/D05]	21.4%	22.0%
CNS(=O)(=O)c1ccc2c(c1)C(=Cc1ccc(F)cc1F)C(=O)N2 [10722/D06]	21.9%	8.9%
CNS(=O)(=O)c1ccc2c(c1)C(=Cc1cc(C)c(O)c(C)c1)C(=O)N2 [10722/D07]	14.1%	25.5%
CNS(=O)(=O)c1ccc2c(c1)C(=Cc1cc(Cl)c(O)c(C(C)(C)C)c1)C(=O)N2 [10722/D08]	29.1%	41.5%
CNS(=O)(=O)c1ccc2c(c1)C(=Cc1csc([N+](=O)[O-])c1)C(=O)N2 [10722/D09]	14.7%	30.6%

From EP1247803A2, “Indolinone compounds suitable for modulation of protein kinases” (Sugen, Inc., priority 1996, dated 1998)
